Assay results from article PMC8648852, “Pyrazoline derivatives as promising novel antischistosomal agents” (Scientific Reports, 2021).

Legend:
[1] = system: S. mansoni adult worm; assay: In vitro antischistosomal assay (viability of ex vivo adult worms); assay type: cell-based, Schistosoma mansoni; settings: Schistosoma mansoni, 72 h, ex vivo adult schistosomes; brackets = 95% confidence interval
Description: For biological screening, S. mansoni adult parasites were isolated from the mouse infection model (parasite ex vivo) and all compounds were initially screened at 50 µM. The gold-standard antiparasitic compound praziquantel was used as a positive control and DMSO at 0.5% v/v (representing the highest concentration of solvent) served as a negative control. […] For the remaining compounds tested, no EC50 values could be calculated due to lack of activity at 50 μM. […] In tandem, our findings confirm that pyrazolines have a potent antiparasitic activity. Indeed, few compounds in the literature are active at low concentrations for review see[11],[19]. According to criteria established by the World Health Organization (WHO) for antiparasitic hits, leads, and drug candidates, at the start of a screening campaign a compound should inhibit mobility of helminths in vitro at 10 μg/mL[20], commonly ranging from 30 to 40 μM. Thus, the anthelminthic activity of pyrazolines surpasses criteria established by the WHO.
Adult schistosomes (BH strain) were isolated from infected mice and cultured in RPMI medium + 10% fetal calf serum and 100 U/mL penicillin and 100 μg/mL streptomycin in a 24-well culture plate (Corning, New York, NY, USA) containing one pair of parasites per well at 37 °C and 5% CO2 (Panasonic Healthcare, Sakata, Oizumi-machi, Japan)[38],[39]. For antischistosomal assay, compounds were dissolved in DMSO (final concentration of 0.5% v/v). Each drug concentration was tested at least in triplicate, and the experiments were repeated three times. The initial concentration of the pyrazolines and praziquantel was 50 μM and 3 μM, respectively, which was serially diluted in medium with twofold dilutions to give six concentrations[40],[41]. The negative control worms were assayed in RPMI 1640 medium and RPMI 1640 with 0.5% DMSO. Parasites were monitored daily at 24, 48 and 72 h under a stereomicroscope (Leica Microsystems EZ4E, Wetzlar, Germany) and an inverted microscope (BEL Engineering INV 100, Monza, MB, Italy). Egg production was evaluated daily as previously described. Parasite viability was averaged and 50% effective concentrations (EC50) were calculated using GraphPad Prism software[24],[43].

SMILES	EC50 [1]	melting point
CCCCCCCCCOc1ccc(C2CC(c3ccc(F)cc3)=NN2C(N)=S)cc1 (stereo not shown) [Compound 29, 3-(4-fluorophenyl)-4,5-dihydro-5-(4-(nonyloxy)phenyl)pyrazole-1-carbothioamide]	> 50 µM	113 to 114 °C
CCCCCCCCCOc1ccc(C2CC(c3ccccc3)=NN2C(N)=S)cc1 (stereo not shown) [Compound 25, 4,5-dihydro-5-(4-(nonyloxy)phenyl)-3-phenylpyrazole-1-carbothioamide]	> 50 µM	86.4 to 88.2 °C
CCCCCCCCCCCCOc1ccc(C2CC(c3ccccc3)=NN2C(N)=O)cc1 (stereo not shown) [Compound 17, 5-(4-(dodecyloxy)phenyl)-4,5-dihydro-3-phenylpyrazole-1-carboxamide]	> 50 µM	94.8 to 97.9 °C
CCCCOc1ccc(C2CC(c3ccccc3)=NN2C(N)=O)cc1 (stereo not shown) [Compound 15, 5-(4-butoxyphenyl)-4,5-dihydro-3-phenylpyrazole-1-carboxamide]	> 50 µM	
CCCCCCCCCCOc1ccc(C2CC(c3ccccc3)=NN2C(N)=S)cc1 (stereo not shown) [Compound 26, 5-(4-(decyloxy)phenyl)-4,5-dihydro-3-phenylpyrazole-1-carbothioamide]	> 50 µM	96.2 to 98.9 °C
CCCCCCCCCCCCCCOc1ccc(C2CC(c3ccc(F)cc3)=NN2C(N)=S)cc1 (stereo not shown) [Compound 31, 3-(4-fluorophenyl)-4,5-dihydro-5-(4-(tetradecyloxy)phenyl)pyrazole-1-carbothioamide]	> 50 µM	92.2 to 94.6 °C
Cc1ccc(-c2cc(-c3ccc(F)cc3)[nH]n2)cc1 [Compound 32, 5-(4-fluorophenyl)-3-(4-methylphenyl)-1H-pyrazole]	> 50 µM	
Fc1ccc(-c2cc(-c3ccc(Cl)cc3)n[nH]2)cc1 [Compound 34, 3-(4-chlorophenyl)-5-(4-fluorophenyl)-1H-pyrazole]	> 50 µM	
CCCCCCCCCCOc1ccc(C2CC(c3ccc(F)cc3)=NN2C(N)=S)cc1 (stereo not shown) [Compound 30, 3-(4-fluorophenyl)-4,5-dihydro-5-(4-(decyloxy)phenyl)pyrazole-1-carbothioamide]	> 50 µM	105.5 to 108.4 °C
NC(=O)N1N=C(c2ccc(F)cc2)CC1c1ccc(Br)cc1 (stereo not shown) [Compound 20, 5-(4-bromophenyl)-3-(4-fluorophenyl)-4,5-dihydropyrazole-1-carboxamide]	> 50 µM	176 to 178 °C
CCCCCCCCCCCCCCOc1ccc(C2CC(c3ccccc3)=NN2C(N)=S)cc1 (stereo not shown) [Compound 28, 4,5-dihydro-3-phenyl-5-(4-(tetradecyloxy)phenyl)pyrazole-1-carbothioamide]	> 50 µM	97 to 99.2 °C
Fc1ccc(-c2cc(-c3ccc(Br)cc3)n[nH]2)cc1 [Compound 33, 3-(4-bromophenyl)-5-(4-fluorophenyl)-1H-pyrazole]	> 50 µM	217 to 219 °C
CCCCCCCCCCCCOc1ccc(C2CC(c3ccccc3)=NN2C(N)=S)cc1 (stereo not shown) [Compound 27, 5-(4-(dodecyloxy)phenyl)-4,5-dihydro-3-phenylpyrazole-1-carbothioamide]	> 50 µM	94.2 °C
CCCCCCCCOc1ccc(C2CC(c3ccccc3)=NN2C(N)=S)cc1 (stereo not shown) [Compound 24, 4,5-dihydro-5-(4-(octyloxy)phenyl)-3-phenylpyrazole-1-carbothioamide]	> 50 µM	90.4 to 92.1 °C
